Source: US7342004B2, “Thioether sulphamate steroids as steroid inhibitors and anti-cancer compounds” (Sterix Ltd., priority 2000, dated 2008)

What was measured:
STS = test: Plate assay, % inhibition; format: biochemical
Procedure: (§1) The STS inhibition provided by the compounds was determined in accordance with the placental microsomes assay of Protocol 4 and a plate assay.

steroid sulphatase (STS) = biological target: T1, steroid sulphatase (STS) (Homo sapiens, UniProt P08842); test: Inhibition of steroid sulphatase activity in placental microsomes, Protocol 4; format: biochemical; conditions: for IC50: placental microsomes; for inhibition at 0.01 µM: read-out: Placental Microsomes, % inhibition 10 nM; for inhibition at 1 µM: read-out: Placental Microsomes, % inhibition 1 μM
T1 sequence (P08842 22-583): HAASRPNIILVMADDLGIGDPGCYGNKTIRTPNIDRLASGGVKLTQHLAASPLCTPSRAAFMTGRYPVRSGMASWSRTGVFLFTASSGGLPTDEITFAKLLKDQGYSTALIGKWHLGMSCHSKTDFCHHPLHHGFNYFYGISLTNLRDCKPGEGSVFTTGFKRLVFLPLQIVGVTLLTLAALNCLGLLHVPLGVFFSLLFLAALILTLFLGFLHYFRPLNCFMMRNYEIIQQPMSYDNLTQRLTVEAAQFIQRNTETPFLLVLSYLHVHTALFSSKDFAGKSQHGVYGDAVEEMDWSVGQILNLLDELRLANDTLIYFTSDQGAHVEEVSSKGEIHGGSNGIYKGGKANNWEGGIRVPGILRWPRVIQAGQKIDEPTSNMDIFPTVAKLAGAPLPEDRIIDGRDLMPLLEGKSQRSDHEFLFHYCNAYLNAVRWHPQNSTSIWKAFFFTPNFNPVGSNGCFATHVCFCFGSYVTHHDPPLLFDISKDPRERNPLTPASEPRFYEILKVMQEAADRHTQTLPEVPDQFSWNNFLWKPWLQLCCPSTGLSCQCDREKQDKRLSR
Procedure: Sulphatase-positive human placenta from normal term pregnancies are thoroughly minced with scissors and washed once with cold phosphate buffer (pH 7.4, 50 mM) then resuspended in cold phosphate buffer (5 ml/g tissue). Homogenisation is accomplished with an Ultra-Turrax homogeniser, using three 10 second bursts separated by 2 minute cooling periods in ice. Nuclei and cell debris are removed by centrifuging (4° C.) at 2000 g for 30 minutes and portions (2 ml) of the supernatant are stored at […] The protein concentration of the supernatants is determined by the method of Bradford (Anal. Biochem., 72, 248-254 (1976)).
Incubations (1 ml) are carried out using a protein concentration of […], substrate concentration of […] [6,7-3H]oestrone-3-sulphate (specific activity 60 Ci/mmol from New England Nuclear, Boston, Mass., U.S.A.) and an incubation time of 20 minutes at 37° C. If necessary eight concentrations of compounds are employed: 0 (i.e. control); 0.05 mM; 0.1 mM; 0.2 mM; 0.4 mM; 0.6 mM; 0.8 mM; 1.0 mM. After incubation each sample is cooled and the medium (1 ml) was pipetted into separate tubes containing [14C]oestrone (7×10^3 dpm) (specific activity 97 Ci/mmol from Amersham International Radiochemical Centre, Amersham, U.K.). The mixture is shaken thoroughly for 30 seconds with toluene (5 ml). Experiments have shown that >90% [14C]oestrone and <0.1% [3H]oestrone-3-sulphate is removed from the aqueous phase by this treatment. A portion (2 ml) of the organic phase was removed, evaporated and the 3H and 14C content of the residue determined by scintillation spectrometry. The mass of oestrone-3-sulphate hydrolysed is calculated from the 3H counts obtained (corrected for the volumes of the medium and organic phase used, and for recovery of [14C]oestrone added) and the specific activity of the substrate.
as §1

CuZnSOD = CuZnSOD (UniProt P00442); test: Superoxide dismutase (SOD) spectrophotometric XTT assay, Protocol 1; format: biochemical; conditions: xanthine oxidase/XTT, 24° C., 30 minutes, read-out: IC 50/μM (+/− SEM) SOD Inhibition
Procedure: In this reaction, 3′-{1-[(phenylamino)-carbonyl]-3,4-tetrazolium}-bis(4-methoxy-6-nitro)benzenesulfonic acid hydrate (XTT) is converted to a colourimetric product by the action of superoxide ions (produced by xanthine oxidase (XO) and xanthine). Production of superoxide ions is inhibited by SOD resulting in decreased product. The ability of test compounds to inhibit SOD is measured by their ability to restore production of the coloured product. Reactions were performed in a total volume of 0.1 ml of buffer A (42 mM Na2CO3 (pH 9.4), 0.1 mM xanthine (Sigma), 0.1 mM EDTA, 0.026 mM XTT (Sigma)).
The reaction was incubated at 24° C. for 30 minutes and products determined by measuring absorobance at 470 nm. All determinations were made in duplicate/triplicate.
SOD activity was measured in accordance with Protocol 1.
Initial analyses were performed using test compounds at 100 μM.

rat liver E1-STS = biological target: T2, rat liver E1-STS (Rattus norvegicus, UniProt P15589); conditions: administered either orally or subcutaneously; cited from earlier work
T2 construct: from tissue; host or cells: rat liver (after oral or subcutaneous dosing)
T2 sequence (P15589 20-577): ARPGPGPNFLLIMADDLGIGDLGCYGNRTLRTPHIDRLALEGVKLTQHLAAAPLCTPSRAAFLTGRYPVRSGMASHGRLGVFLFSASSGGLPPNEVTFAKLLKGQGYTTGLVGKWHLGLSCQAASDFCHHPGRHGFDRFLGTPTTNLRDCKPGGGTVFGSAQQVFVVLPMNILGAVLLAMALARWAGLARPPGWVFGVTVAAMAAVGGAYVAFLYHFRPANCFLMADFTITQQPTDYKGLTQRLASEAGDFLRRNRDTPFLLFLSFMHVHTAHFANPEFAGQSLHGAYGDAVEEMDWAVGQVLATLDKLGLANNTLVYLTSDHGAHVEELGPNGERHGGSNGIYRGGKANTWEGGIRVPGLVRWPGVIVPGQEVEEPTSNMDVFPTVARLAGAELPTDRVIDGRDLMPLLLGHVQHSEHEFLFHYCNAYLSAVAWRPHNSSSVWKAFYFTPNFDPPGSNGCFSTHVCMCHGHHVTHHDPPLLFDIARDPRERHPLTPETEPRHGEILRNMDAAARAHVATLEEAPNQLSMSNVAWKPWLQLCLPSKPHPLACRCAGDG

uterus = conditions: cited from earlier work
DHA-STS = biological target: T3, DHA-STS (Rattus norvegicus, UniProt P15589); conditions: administered either orally or subcutaneously; cited from earlier work
T3 construct: from tissue; host or cells: rat liver (after oral or subcutaneous dosing)
T3 sequence (P15589 20-577): T2 sequence (P15589 20-577)

steroid sulphatase = biological target: T4, steroid sulphatase (Homo sapiens, UniProt P08842); conditions: cited from earlier work
T4 sequence (P08842 22-583): T1 sequence (P08842 22-583)

[1] = system: MCF7, CAL51, CAMA1 and ZR-75-1 breast cancer derived cell lines; test: Cell cycle and apoptosis analysis in breast cancer cell lines; format: cell-based, human
Procedure: MCF7, CAL51, CAMA1 and ZR-75-1 breast cancer derived cell lines were obtained from ATCC (MCF7, CAMA1, ZR-75-1) or from the Dutrillaux laboratory (CAL51) (22) and maintained in Dulbecco's modified Eagle's medium (DMEM) supplemented with 10% (v/v) fetal calf serum and antibiotics.
DNA content was determined by flow cytometric analysis of propidium iodide stained cells and TdT-mediated dUTP-nick end labelling (TUNEL), respectively, as described (20). The proportion of cells in G2/M phase of the cell cycle was calculated as a proportion of cells with […] DNA content. The proportion of cells with <G1 DNA content was calculated as a percentage of total cells.
To determine the proportion of cells in mitosis, drug treated cells were collected by trypsinisation and cytospins prepared. Cells were fixed in ice cold methanol for 5 minutes, air dried and DNA was stained using propidium iodide (PI) (0.1 mg/ml in phosphate buffered saline (PBS) containing 10% (v/v) newborn calf serum and 0.05% (w/v) sodium azide). Cells were analysed by confocal microscopy using a Zeiss Axiovert 100 M microscope equipped with the LSM 510 confocal system (Zeiss, Jena, Germany).
We examined whether the differential sensitivity of breast cancer cell lines to the growth inhibitory effects of the compounds of the present invention.

| Compound | Plate Assay, % inhibition 0.1 μM (STS) [%] | Plate Assay, % inhibition 1 μM (STS) [%] | Plate Assay, % inhibition 10 μM (STS) [%] | inhibition at 1 µM (steroid sulphatase (STS)) [%] | IC50 (CuZnSOD) [µM] | also measured |
| --- | --- | --- | --- | --- | --- | --- |
| CSc1cc2c(cc1OS(N)(=O)=O)CCC1C2CC[C@@]2(C)C1CC[C@@]2(O)Cc1ccccc1 (stereo in doubt) [Compound 30, Sulfamic acid 17-benzyl-17-hydroxy-13-methyl-2-methylsulfanyl-7,8,9,11,12,13,14, 15,16,17-decahydro-6H-cyclopenta[a]phenanthren-3-yl ester] | <1 | <1 | 31 | 93 | – | IC50 (steroid sulphatase (STS)): 0.044 µM; inhibition at 0.01 µM (steroid sulphatase (STS)): 15.5%; inhibition at 0.1 µM (steroid sulphatase (STS); read-out: Placental Microsomes, % inhibition 100 nM): 69.7%; inhibition at 10 µM (steroid sulphatase (STS); read-out: Placental Microsomes, % inhibition 10 μM): 97.4% |
| CSc1cc2c(cc1O)CCC1C2CC[C@]2(C)C(=O)CCC12 (some centres unmarked) [Compound 8, 2-methylsulfanylestrone] | <1 | 1 | 11 | – | 21 | – |
| CCSc1cc2c(cc1O)CCC1C2CC[C@]2(C)C(=O)CCC12 (some centres unmarked) [Compound 10, 2-ethylsulfanylestrone] | <1 | <4 | 14 | – | 79 | – |
| CC12CCC3c4ccc(OS(N)(=O)=O)cc4CCC3C1CCC2=O (centres unmarked) [Compound 24, estrone-3-O-sulphamate, reference compound] | – | – | – | – | > 100 | inhibition of rat liver E1-STS activity (rat liver E1-STS): 99%; oral uterotrophic activity in rats relative to estradiol (uterus; oral, rats, higher than that of estradiol): 100 times; inhibition of rat liver DHA-STS activity (DHA-STS): 99% |
| COc1cc2c(cc1OS(N)(=O)=O)CC[C@@H]1[C@@H]2CC[C@]2(C)C(=O)CC[C@@H]12 [Compound 25, 2-methoxyestrone-3-O-sulphamate] | – | – | – | – | > 100 | potency as a steroid sulphatase inhibitor compared with EMATE (steroid sulphatase): equipotent with EMATE; oestrogenicity (uterus; rat, in vivo): devoid of oestrogenicity |
| CSc1cc2c(cc1O)CCC1C2CCC2(C)C1CCC2(O)Cc1ccc(C(C)(C)C)cc1 (centres unmarked) [Compound 31, 17-(4-tert-Butyl-benzyl)-13-methyl-2-methylsulfanyl-7,8,9,11,12,13,14,15,16,17-decahydro-6H-cyclopenta[a]phenanthrene-3,17-diol] | <1 | <1 | 50 | – | – | – |
| CSc1cc2c(cc1OS(N)(=O)=O)CCC1C2CCC2(C)C1CCC2(O)Cc1ccc(C(C)(C)C)cc1 (centres unmarked) [Compound 32, Sulfamic acid 17-(4-tert-butyl-benzyl)-17-hydroxy-13-methyl-2-methylsulfanyl-7,8,9,11,12,13,14,15,16,17-decahydro-6H-cyclopenta[a]phenanthren-3-yl ester] | <1 | <1 | 48 | 81.8 | – | – |
| CSc1cc2c(cc1OS(N)(=O)=O)CCC1C2CC[C@]2(C)C(=O)CCC12 (some centres unmarked) [Compound 36] | 3 | 53 | 55 | 86.9 | – | Effect on cell morphology (rounding, detachment) [1]: induced cells to become rounded and detached from the plate/flask; IC50 (steroid sulphatase (STS)): 0.12 µM |
| CCSc1cc2c(cc1OS(N)(=O)=O)CCC1C2CC[C@]2(C)C(=O)CCC12 (some centres unmarked) [Compound 38] | <1 | 1 | 16 | 66 | – | inhibition at 0.01 µM (steroid sulphatase (STS)): < 5% |
